From PubChem BioAssay AID252 (DTP/NCI, 2004)
Several values for one entry are separate records, joined by “and”; a condition that tells them apart may be missing. Equal values may be shown once. Inconclusive results and toxic doses are left out. The calls were made as follows: active = survival T/C of 150% or more; inactive = T/C below 125% in these data.

Test system: BDF1 mice, intracerebral L1210 leukemia, survival T/C
Assay: NCI In Vivo Anticancer Drug Screen. Data for tumor model L1210 Leukemia (intracerebral) in B6D2F1 (BDF1) mice
Settings: higher = longer survival
Experimental: The antitumor activity of compounds was measured in mice bearing transplantable tumors. Survival or tumor size were measured and the results are expressed as the measurement made in the treated group (T) divided by the measurement made in the vehicle treated control group (C). The tumor model used in this assay is L1210 Leukemia (intracerebral) in B6D2F1 (BDF1) mice

[1] = endpoint: median survival time, dose: 65.0 mg/kg/injection, schedule: Q01DX009 (ip), vehicle: water
[2] = endpoint: mean survival time, dose: 18.0 mg/kg/injection, schedule: Q01DX001 (ip), vehicle: carboxymethylcellulose (CMC)

Measured: T/C

N=c1ccn2c(n1)OC1C(O)C(CO)OC12 (stereo not drawn)
active: endpoint: mean survival time, dose: 50.0 mg/kg/injection, schedule: Q01DX009 (oral), vehicle: saline 220 % of control | endpoint: mean survival time, dose: 50.0 mg/kg/injection, schedule: Q08DX009 (ip), vehicle: water 175 % of control | endpoint: mean survival time, dose: 100.0 mg/kg/injection, schedule: Q01DX009 (oral), vehicle: saline 228 % of control | endpoint: mean survival time, dose: 100.0 mg/kg/injection, schedule: Q01DX009 (oral), vehicle: water 186 % of control | endpoint: mean survival time, dose: 100.0 mg/kg/injection, schedule: Q08DX009 (ip), vehicle: water 196 % of control | endpoint: mean survival time, dose: 200.0 mg/kg/injection, schedule: Q01DX009 (oral), vehicle: saline 255 % of control | endpoint: mean survival time, dose: 200.0 mg/kg/injection, schedule: Q01DX009 (oral), vehicle: water 201 % of control | endpoint: mean survival time, dose: 200.0 mg/kg/injection, schedule: Q08DX009 (ip), vehicle: water 215 % of control and 258 % of control | endpoint: mean survival time, dose: 300.0 mg/kg/injection, schedule: Q08DX009 (ip), vehicle: water 232 % of control and 217 % of control | endpoint: mean survival time, dose: 400.0 mg/kg/injection, schedule: Q01DX009 (oral), vehicle: saline 193 % of control | endpoint: mean survival time, dose: 400.0 mg/kg/injection, schedule: Q01DX009 (oral), vehicle: water 223 % of control | endpoint: mean survival time, dose: 400.0 mg/kg/injection, schedule: Q08DX009 (ip), vehicle: water 285 % of control | [1] 167 % of control | endpoint: median survival time, dose: 100.0 mg/kg/injection, schedule: Q01DX009 (ip), vehicle: water 196 % of control | endpoint: median survival time, dose: 108.0 mg/kg/injection, schedule: Q01DX009 (ip), vehicle: water 176 % of control | endpoint: median survival time, dose: 200.0 mg/kg/injection, schedule: Q01DX009 (ip), vehicle: water 223 % of control | endpoint: median survival time, dose: 400.0 mg/kg/injection, schedule: Q01DX009 (ip), vehicle: water 354 % of control

C[C@H](N)C(=O)N[C@@H]1[C@H]2C(=C(O)C[C@@H](O)[C@@H]2O)C(=O)O[C@@H]1C
inactive: endpoint: mean survival time, dose: 125.0 mg/kg/injection, schedule: Q01DX Z (ip), vehicle: saline 97 % of control | endpoint: mean survival time, dose: 211.0 mg/kg/injection, schedule: Q01DX015 (ip), vehicle: saline 103 % of control | endpoint: mean survival time, dose: 250.0 mg/kg/injection, schedule: Q01DX Z (ip), vehicle: saline 107 % of control | endpoint: mean survival time, dose: 320.0 mg/kg/injection, schedule: Q01DX015 (ip), vehicle: saline 103 % of control | endpoint: mean survival time, dose: 480.0 mg/kg/injection, schedule: Q01DX015 (ip), vehicle: saline 102 % of control | endpoint: mean survival time, dose: 500.0 mg/kg/injection, schedule: Q01DX Z (ip), vehicle: saline 109 % of control | endpoint: mean survival time, dose: 720.0 mg/kg/injection, schedule: Q01DX015 (ip), vehicle: saline 103 % of control | endpoint: mean survival time, dose: 750.0 mg/kg/injection, schedule: Q01DX Z (ip), vehicle: saline 107 % of control | endpoint: mean survival time, dose: 1000.0 mg/kg/injection, schedule: Q01DX Z (ip), vehicle: saline 106 % of control | endpoint: mean survival time, dose: 1080.0 mg/kg/injection, schedule: Q01DX015 (ip), vehicle: saline 105 % of control | endpoint: mean survival time, dose: 1500.0 mg/kg/injection, schedule: Q01DX Z (ip), vehicle: saline 106 % of control | endpoint: mean survival time, dose: 2024.0 mg/kg/injection, schedule: Q01DX001 (ip), vehicle: saline 109 % of control | endpoint: mean survival time, dose: 3082.0 mg/kg/injection, schedule: Q01DX001 (ip), vehicle: saline 105 % of control

O=c1[nH]c(=O)n([C@H]2CCCO2)cc1F
inactive: endpoint: median survival time, dose: 23.0 mg/kg/injection, schedule: Q01DX009 (ip), vehicle: water 95 % of control | endpoint: median survival time, dose: 39.0 mg/kg/injection, schedule: Q01DX009 (ip), vehicle: water 107 % of control | [1] 101 % of control | endpoint: median survival time, dose: 65.0 mg/kg/injection, schedule: Q04DX003 (ip), vehicle: water 97 % of control | endpoint: median survival time, dose: 108.0 mg/kg/injection, schedule: Q04DX003 (ip), vehicle: water 99 % of control | endpoint: median survival time, dose: 180.0 mg/kg/injection, schedule: Q01DX009 (ip), vehicle: water 97 % of control | endpoint: median survival time, dose: 180.0 mg/kg/injection, schedule: Q04DX003 (ip), vehicle: water 111 % of control

O=NN(CCCl)C(=O)Nc1ccc(C(=O)O)cc1
inactive: endpoint: mean survival time, dose: 2.5 mg/kg/injection, schedule: Q01DX001 (ip), vehicle: carboxymethylcellulose (CMC) 101 % of control | endpoint: mean survival time, dose: 3.7 mg/kg/injection, schedule: Q01DX001 (ip), vehicle: carboxymethylcellulose (CMC) 97 % of control | endpoint: mean survival time, dose: 5.0 mg/kg/injection, schedule: Q01DX001 (ip), vehicle: carboxymethylcellulose (CMC) 106 % of control | endpoint: mean survival time, dose: 6.0 mg/kg/injection, schedule: Q01DX001 (ip), vehicle: carboxymethylcellulose (CMC) 100 % of control | endpoint: mean survival time, dose: 7.5 mg/kg/injection, schedule: Q01DX001 (ip), vehicle: carboxymethylcellulose (CMC) 101 % of control | endpoint: mean survival time, dose: 8.0 mg/kg/injection, schedule: Q01DX001 (ip), vehicle: carboxymethylcellulose (CMC) 106 % of control | endpoint: mean survival time, dose: 12.0 mg/kg/injection, schedule: Q01DX001 (ip), vehicle: carboxymethylcellulose (CMC) 108 % of control | [2] 104 % of control

C[C@@H](CN1CC(=O)NC(=O)C1)N1CC(=O)NC(=O)C1
inactive: endpoint: median survival time, dose: 8.0 mg/kg/injection, schedule: Q01DX009 (ip), vehicle: water 112 % of control | endpoint: median survival time, dose: 16.0 mg/kg/injection, schedule: Q01DX009 (ip), vehicle: water 121 % of control and 123 % of control | endpoint: median survival time, dose: 128.0 mg/kg/injection, schedule: Q01DX009 (ip), vehicle: water 123 % of control | endpoint: median survival time, dose: 256.0 mg/kg/injection, schedule: Q01DX009 (ip), vehicle: water 111 % of control | endpoint: median survival time, dose: 512.0 mg/kg/injection, schedule: Q01DX009 (ip), vehicle: water 113 % of control

COc1cccc(NC(=O)N(CCCl)N=O)c1
inactive: [2] 115 % of control | endpoint: mean survival time, dose: 27.0 mg/kg/injection, schedule: Q01DX001 (ip), vehicle: carboxymethylcellulose (CMC) 115 % of control | endpoint: mean survival time, dose: 40.0 mg/kg/injection, schedule: Q01DX001 (ip), vehicle: carboxymethylcellulose (CMC) 121 % of control | endpoint: mean survival time, dose: 60.0 mg/kg/injection, schedule: Q01DX001 (ip), vehicle: carboxymethylcellulose (CMC) 97 % of control

O=NN(CCCl)C(=O)N[C@H]1CCCC[C@H]1O
active: endpoint: mean survival time, dose: 18.0 mg/kg/injection, schedule: Q01DX001 (ip), vehicle: saline with Tween-80 220 % of control | endpoint: mean survival time, dose: 26.0 mg/kg/injection, schedule: Q01DX001 (ip), vehicle: saline with Tween-80 408 % of control | endpoint: mean survival time, dose: 40.0 mg/kg/injection, schedule: Q01DX001 (ip), vehicle: saline with Tween-80 352 % of control | endpoint: mean survival time, dose: 60.0 mg/kg/injection, schedule: Q01DX001 (ip), vehicle: saline with Tween-80 193 % of control
